Test results from ChEMBL document CHEMBL1201862, “PubChem BioAssay data set” (2004).
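48-hour exposure; five concentrations; linearly interpolated endpoints. GI50 is the concentration that inhibits growth by half.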 The source made the active and inactive calls. Cut-off read from the data, not from the text of the source: active = GI50 up to about 1.1 µM and inactive = higher.

Key:
Test in all cases: inhibition of tumour cell growth, NCI panel, 48 h
HCT-15 = system: HCT-15
SK-MEL-2 = system: SK-MEL-2
A498 = system: A498
T47D = system: T47D
HL-60 = system: HL-60
HOP-62 = system: HOP-62
786-0 = system: 786-0
OVCAR-8 = system: OVCAR-8
UO-31 = system: UO-31
OVCAR-5 = system: OVCAR-5
DU-145 = system: DU-145
A549 = system: A549
LOX IMVI = system: LOX IMVI
MDA-MB-435 = system: MDA-MB-435
SK-MEL-28 = system: SK-MEL-28
ACHN = system: ACHN
EKVX = system: EKVX
NCI-H460 = system: NCI-H460
SF-539 = system: SF-539
SNB-19 = system: SNB-19
SF-295 = system: SF-295
COLO 205 = system: COLO 205
MCF7 = system: MCF7
TK-10 = system: TK-10
UACC-62 = system: UACC-62
MDA-N = system: MDA-N
HCT-116 = system: HCT-116
HCC 2998 = system: HCC 2998
HT-29 = system: HT-29
MDA-MB-231 = system: MDA-MB-231
SF-268 = system: SF-268
NCI/ADR-RES = system: NCI/ADR-RES
RXF 393 = system: RXF 393
CAKI-1 = system: CAKI-1
SK-MEL-5 = system: SK-MEL-5
BT-549 = system: BT-549
OVCAR-3 = system: OVCAR-3
SN12C = system: SN12C
PC-3 = system: PC-3
M14 = system: M14
SR = system: SR
OVCAR-4 = system: OVCAR-4
SK-OV-3 = system: SK-OV-3
RPMI-8226 = system: RPMI-8226
CCRF-CEM = system: CCRF-CEM
NCI-H522 = system: NCI-H522
Hs-578T = system: Hs-578T
K562 = system: K562
U-251 = system: U-251
Malme-3M = system: Malme-3M
IGROV-1 = system: IGROV-1
MOLT-4 = system: MOLT-4
UACC-257 = system: UACC-257
HOP-92 = system: HOP-92
NCI-H23 = system: NCI-H23
NCI-H226 = system: NCI-H226
SNB-75 = system: SNB-75
SW-620 = system: SW-620
KM12 = system: KM12

O=C(CSc1nc2ccccc2c(=O)n1-c1ccccc1)N/N=C1\C(=O)Nc2ccc(Br)cc21
GI50 (HCT-15): 4.39 µM
GI50 (SK-MEL-2): 9.53 µM (inactive)
GI50 (A498): 6.21 µM (inactive)
GI50 (T47D): 4.92 µM (inactive)
GI50 (HL-60): 3.21 µM (inactive)
GI50 (HOP-62): 2.59 µM (inactive)
GI50 (786-0): 1.95 µM (inactive)
GI50 (OVCAR-8): 1.85 µM (inactive)
GI50 (UO-31): 2.28 µM (inactive)
GI50 (OVCAR-5): 2.92 µM (inactive)
GI50 (DU-145): 2.13 µM (inactive)
GI50 (A549): 2.3 µM (inactive)
GI50 (LOX IMVI): 3.33 µM (inactive)
GI50 (MDA-MB-435): 5.71 µM (inactive)
GI50 (SK-MEL-28): 3.35 µM (inactive)
GI50 (ACHN): 4.57 µM (inactive)
GI50 (EKVX): 2.74 µM (inactive)
GI50 (NCI-H460): 4.92 µM (inactive)
GI50 (SF-539): 2.1 µM (inactive)
GI50 (SNB-19): 3.03 µM (inactive)
GI50 (SF-295): 2.81 µM (inactive)
GI50 (COLO 205): 3.74 µM (inactive)
GI50 (MCF7): 3.49 µM (inactive)
GI50 (TK-10): 2.39 µM (inactive)
GI50 (UACC-62): 4.44 µM (inactive)
GI50 (MDA-N): 3.01 µM (inactive)
GI50 (HCT-116): 2.26 µM (inactive)
GI50 (HCC 2998): 8.17 µM (inactive)
GI50 (HT-29): 1.69 µM (inactive)
GI50 (MDA-MB-231): 1.65 µM (inactive)
GI50 (SF-268): 5.48 µM (inactive)
GI50 (NCI/ADR-RES): 2.99 µM (inactive)
GI50 (RXF 393): 2.62 µM (inactive)
GI50 (CAKI-1): 2.48 µM (inactive)
GI50 (SK-MEL-5): 2.58 µM (inactive)
GI50 (BT-549): 10.3 µM (inactive)
GI50 (OVCAR-3): 3.1 µM (inactive)
GI50 (SN12C): 1.71 µM (inactive)
GI50 (PC-3): 1.84 µM (inactive)
GI50 (M14): 2.4 µM (inactive)
GI50 (SR): 15.6 µM (inactive)
GI50 (OVCAR-4): 2.58 µM (inactive)
GI50 (SK-OV-3): 3.41 µM (inactive)
GI50 (RPMI-8226): 2.72 µM (inactive)
GI50 (CCRF-CEM): 5.62 µM (inactive)
GI50 (NCI-H522): 3.4 µM (inactive)
GI50 (Hs-578T): 7.05 µM (inactive)
GI50 (K562): 3.2 µM (inactive)
GI50 (U-251): 1.82 µM (inactive)
GI50 (Malme-3M): 2.26 µM (inactive)
GI50 (IGROV-1): 2.14 µM (inactive)
GI50 (MOLT-4): 3.33 µM (inactive)
GI50 (UACC-257): 5.94 µM (inactive)
GI50 (HOP-92): 2.7 µM (inactive)
GI50 (NCI-H23): 3.42 µM (inactive)
GI50 (NCI-H226): 12.1 µM (inactive)
GI50 (SNB-75): 3.01 µM (inactive)
GI50 (SW-620): 3.37 µM (inactive)
GI50 (KM12): 2.44 µM (inactive)

Cc1ccccc1S(=O)(=O)OC1NS(=O)(=O)c2ccccc21 (stereo not given)
GI50 (HCT-15): > 100 µM
GI50 (SK-MEL-2): > 100 µM (inactive)
GI50 (A498): > 100 µM (inactive)
GI50 (T47D): > 100 µM (inactive)
GI50 (HOP-62): > 100 µM (inactive)
GI50 (786-0): > 100 µM (inactive)
GI50 (OVCAR-8): > 100 µM (inactive)
GI50 (UO-31): > 100 µM (inactive)
GI50 (OVCAR-5): > 100 µM (inactive)
GI50 (DU-145): > 100 µM (inactive)
GI50 (A549): > 100 µM (inactive)
GI50 (LOX IMVI): > 100 µM (inactive)
GI50 (MDA-MB-435): > 100 µM (inactive)
GI50 (SK-MEL-28): > 100 µM (inactive)
GI50 (ACHN): > 100 µM (inactive)
GI50 (EKVX): > 100 µM (inactive)
GI50 (NCI-H460): > 100 µM (inactive)
GI50 (SF-539): > 100 µM (inactive)
GI50 (SNB-19): > 100 µM (inactive)
GI50 (SF-295): > 100 µM (inactive)
GI50 (COLO 205): > 100 µM (inactive)
GI50 (MCF7): > 100 µM (inactive)
GI50 (TK-10): > 100 µM (inactive)
GI50 (UACC-62): > 100 µM (inactive)
GI50 (MDA-N): > 100 µM (inactive)
GI50 (HCT-116): > 100 µM (inactive)
GI50 (HCC 2998): > 100 µM (inactive)
GI50 (HT-29): > 100 µM (inactive)
GI50 (MDA-MB-231): > 100 µM (inactive)
GI50 (SF-268): > 100 µM (inactive)
GI50 (NCI/ADR-RES): > 100 µM (inactive)
GI50 (RXF 393): > 100 µM (inactive)
GI50 (CAKI-1): > 100 µM (inactive)
GI50 (SK-MEL-5): > 100 µM (inactive)
GI50 (BT-549): > 100 µM (inactive)
GI50 (OVCAR-3): > 100 µM (inactive)
GI50 (SN12C): > 100 µM (inactive)
GI50 (PC-3): > 100 µM (inactive)
GI50 (M14): > 100 µM (inactive)
GI50 (SR): > 100 µM (inactive)
GI50 (OVCAR-4): > 100 µM (inactive)
GI50 (SK-OV-3): > 100 µM (inactive)
GI50 (RPMI-8226): > 100 µM (inactive)
GI50 (NCI-H522): > 100 µM (inactive)
GI50 (Hs-578T): > 100 µM (inactive)
GI50 (K562): > 100 µM (inactive)
GI50 (U-251): > 100 µM (inactive)
GI50 (Malme-3M): > 100 µM (inactive)
GI50 (IGROV-1): > 100 µM (inactive)
GI50 (MOLT-4): > 100 µM (inactive)
GI50 (UACC-257): > 100 µM (inactive)
GI50 (HOP-92): > 100 µM (inactive)
GI50 (NCI-H23): > 100 µM (inactive)
GI50 (SNB-75): > 100 µM (inactive)
GI50 (SW-620): > 100 µM (inactive)
GI50 (KM12): > 100 µM (inactive)
